Starred links: 1 amine or outer side, 2 acyl side, 3 side chain; linkers in the order of their positions; H or OH if unused. Positions of bridges follow the written chain, without caps; N, C: chain ends. Non-standard residues stand in square brackets, D forms with d. Residues, ends and D or L forms follow the SMILES beside them. *: point of attachment. X10 = O=C([C@H]1C[C@@H](N2CCC(F)(F)CC2)CN1[*:1])[*:2]; X13 = O=C([C@@H]1C[C@H](N2CCC(F)(F)CC2)CN1[*:1])[*:2]; X1 = CC(CC(=O)[*:2])C(=O)[C@@H](N[*:1])[C@@H](C)O; NMeAla(4-thiazolyl) = CN[C@@H](Cc1cscn1)C(=O)O; Phe(4-CHF2) = N[C@@H](Cc1ccc(C(F)F)cc1)C(=O)O; NMePhe(3-Cl) = CN[C@@H](Cc1cccc(Cl)c1)C(=O)O; X12 = CCCC[C@@H](O)[C@H](N[*:1])C(=O)[*:2]; Ethyl(2-morpholino) = C1CN(CC*)CCO1; NMeF = CN[C@@H](Cc1ccccc1)C(=O)O; NMeGABA = CN(CCCC(=O)[*:2])[*:1]; NMeI = CC[C@H](C)[C@H](NC)C(=O)O; NMeD = CN[C@@H](CC(=O)O)C(=O)O; NMeL = CN[C@@H](CC(C)C)C(=O)O; dNMeL = CN[C@H](CC(C)C)C(=O)O; Propyl(2R-OH) = C[C@@H](O)C*; dNMeAbu = CC[C@@H](NC)C(=O)O; NMeV = CN[C@H](C(=O)O)C(C)C; NMeAbu = CC[C@H](NC)C(=O)O; NMeA = CN[C@@H](C)C(=O)O; Piperidide = C1CCN(*)CC1; dAbu = CC[C@@H](N)C(=O)O; dNMeA = CN[C@H](C)C(=O)O; NBuGly = CCCCNCC(=O)O; Ethyl(2-OH) = OCC*; Sar = CNCC(=O)O; tBu = CC(C)(C)*; CHF2 = FC(F)*
Legend:
Caco-2 cells [1] = conditions: Ozeki et al. 2015, cited from earlier work; for decrease in the concentration on the Apical side: 120 minutes of incubation
[2] = Caco-2 membrane permeability, improved method as used in the following Examples (96-well, 20 to 24 h preincubation); type: in vitro ADME; conditions: human, Caco-2, Caco-2 (cm/sec)
Method in brief: (§1)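 Caco-2 monolayers were grown three weeks and preincubated 20–24 h at 37 °C with compound in DMEM+FaSSIF (1% DMSO) apically. The assay then used compound in FaSSIF/HBSS (1% DMSO, pH 6.0) apically and HBSS with 4% BSA (pH 7.4) basally. Basal samples were taken at 180 min for LC/MS, and Papp (cm/sec) was calculated.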

Caco-2 cells [3] = assay: as above; type: in vitro ADME
Method in brief: as §1

SMILES	Caco-2 (Caco-2 cells [3]; human, Caco-2, 180 min) [cm/s]	other results
COCCc1ccc(OCC(O)CNC(C)C)cc1 (stereo not drawn) [metoprolol]		decrease in the concentration on the Apical side (Caco-2 cells [1]): approximately 20%
CC(C)C[C@H]1C(=O)N[C@@H]([C@@H](C)O)C(=O)C(C)CC(=O)N(C)[C@@H](C(C)C)C(=O)N[C@@H](Cc2ccccc2)C(=O)N(C)[C@@H](Cc2cccc(Cl)c2)C(=O)N(C)[C@@H](CC(C)C)C(=O)N(C)[C@H](C(=O)N2CCCCC2)CC(=O)N2CCC[C@H]2C(=O)N[C@@H](Cc2ccccc2)C(=O)N[C@@H](COC(C)(C)C)C(=O)N1C (stereo partly drawn) [pd162] (PFS(tBu)[NMeL][X1][NMeV]F[NMePhe(3-Cl)][NMeL][NMeD]-Piperidide; lactam N-10)		Papp A→B at 180 min [2]: 1.2 ×10⁻⁶ cm/s; Caco-2 (Caco-2 cells [3]; Caco-2): 1.2e-06 cm/s
CC(C)C[C@H]1C(=O)N[C@@H]([C@@H](C)O)C(=O)N(C)CC(=O)N(C)[C@@H](C(C)C)C(=O)N[C@@H](Cc2ccccc2)C(=O)N(C)[C@@H](Cc2cccc(Cl)c2)C(=O)N(C)[C@@H](CC(C)C)C(=O)N(C)[C@H](C(=O)N2CCCCC2)CC(=O)N2CCC[C@@H]2C(=O)N[C@@H](Cc2ccccc2)C(=O)N[C@@H](COC(C)(C)C)C(=O)N1C [pd163] ([dP]FS(tBu)[NMeL]T[Sar][NMeV]F[NMePhe(3-Cl)][NMeL][NMeD]-Piperidide; lactam N-11)		Papp A→B at 180 min [2]: 1.7 ×10⁻⁶ cm/s; Caco-2 (Caco-2 cells [3]; Caco-2): 1.7e-06 cm/s
CC(C)C[C@H]1C(=O)N[C@@H]([C@@H](C)O)C(=O)N(C)CC(=O)N(C)[C@@H](C(C)C)C(=O)N[C@@H](Cc2ccccc2)C(=O)N(C)[C@@H](Cc2cccc(Cl)c2)C(=O)N(C)[C@@H](CC(C)C)C(=O)N(C)[C@H](C(=O)N2CCCCC2)CC(=O)N(C)[C@H](C)C(=O)N[C@@H](Cc2ccccc2)C(=O)N[C@@H](COC(C)(C)C)C(=O)N1C [pd167] ([dNMeA]FS(tBu)[NMeL]T[Sar][NMeV]F[NMePhe(3-Cl)][NMeL][NMeD]-Piperidide; lactam N-11)		Papp A→B at 180 min [2]: 1.7 ×10⁻⁶ cm/s; Caco-2 (Caco-2 cells [3]; Caco-2): 1.7e-06 cm/s
CC(C)C[C@H]1C(=O)N[C@H](C(=O)N2CCCCC2)CC(=O)N[C@H](C)C(=O)N2C[C@H](N3CCC(F)(F)CC3)C[C@@H]2C(=O)N[C@@H](COC(C)(C)C)C(=O)N(C)[C@@H](CC(C)C)C(=O)N(C)[C@@H](CC(C)C)C(=O)N(C)[C@@H](CC(C)C)C(=O)N[C@@H]([C@@H](C)O)C(=O)N(C)[C@@H](Cc2ccccc2)C(=O)N[C@@H](Cc2ccccc2)C(=O)N1C [pd457] ([dA][X10]S(tBu)[NMeL][NMeL][NMeL]T[NMeF]F[NMeL]D-Piperidide; lactam N-11)	1.1e-06	
CC[C@H]1NC(=O)C[C@@H](C(=O)N2CCCCC2)NC(=O)[C@H](CC(C)C)N(C)C(=O)[C@H](Cc2ccccc2)NC(=O)[C@@H]2C[C@H](N3CCC(F)(F)CC3)CN2C(=O)[C@H]([C@@H](C)O)NC(=O)[C@H](CC(C)C)N(C)C(=O)[C@H](CC(C)C)NC(=O)[C@H](CC(C)C)N(C)C(=O)[C@H](COC(C)(C)C)NC(=O)[C@H](CC(C)C)N(C)C1=O [pd462] ([dAbu][NMeL]S(tBu)[NMeL]L[NMeL]T[X13]F[NMeL]D-Piperidide; lactam N-11)	1.1e-06	
CCCCN1CC(=O)N(C)[C@@H](CC(C)C)C(=O)N[C@H](C(=O)N2CCCCC2)CC(=O)N(C)[C@@H](CC(C)C)C(=O)N[C@@H](CC(C)C)C(=O)N(C)[C@@H](CC(C)C)C(=O)N(C)[C@@H](Cc2cscn2)C(=O)N[C@@H](CC(C)C)C(=O)N(C)[C@@H](Cc2ccccc2)C(=O)N(C)[C@@H]([C@@H](C)CC)C(=O)N[C@@H](CCC(=O)NC)C1=O [pd465] ([NMeL]L[NMeL][NMeAla(4-thiazolyl)]L[NMeF][NMeI]E(NHMe)[NBuGly][NMeL]D-Piperidide; lactam N-11)	1.1e-06	
CCCC[C@@H](O)[C@@H]1NC(=O)[C@H](CC(C)C)N(C)C(=O)[C@H](CC(C)C)NC(=O)[C@H](Cc2ccccc2)N(C)C(=O)[C@@H](C)NC(=O)C[C@@H](C(=O)N2CCCCC2)NC(=O)[C@H](C)N(C)C(=O)[C@H](Cc2ccccc2)N(C)C(=O)[C@H](COC(C)(C)C)NC(=O)[C@H](CC(C)C)N(C)C(=O)CN(C)C1=O [pd466] ([dA][NMeF]L[NMeL][X12][Sar][NMeL]S(tBu)[NMeF][NMeA]D-Piperidide; lactam N-11)	1.1e-06	
CC(C)C[C@H]1C(=O)N[C@@H](COC(C)(C)C)C(=O)N(C)[C@@H](Cc2ccccc2)C(=O)N(C)[C@@H](CC(C)C)C(=O)N[C@H](C(=O)N2CCCCC2)CC(=O)N[C@H](C(C)C)C(=O)N(C)[C@@H](C(C)C)C(=O)N[C@@H](Cc2ccc(C(F)F)cc2)C(=O)N(C)[C@@H](CC(C)C)C(=O)N[C@@H]([C@@H](C)O)C(=O)N(C)CC(=O)N1C [pd472] ([dV][NMeV][Phe(4-CHF2)][NMeL]T[Sar][NMeL]S(tBu)[NMeF][NMeL]D-Piperidide; lactam N-11)	1.1e-06	
CC(C)C[C@H]1C(=O)N[C@@H](COC(C)(C)C)C(=O)N(C)[C@@H](Cc2ccccc2)C(=O)N(C)[C@@H](CC(C)C)C(=O)N[C@H](C(=O)N2CCCCC2)CC(=O)N[C@H](C(C)C)C(=O)N(C)[C@@H](C(C)C)C(=O)N[C@@H](Cc2ccc(OC(F)F)cc2)C(=O)N(C)[C@@H](CC(C)C)C(=O)N[C@@H]([C@@H](C)O)C(=O)N(C)CC(=O)N1C [pd476] ([dV][NMeV]Y(CHF2)[NMeL]T[Sar][NMeL]S(tBu)[NMeF][NMeL]D-Piperidide; lactam N-11)	1.1e-06	
CCCCN1CC(=O)N(C)[C@@H](CC(C)C)C(=O)N[C@H](C(=O)N2CCCCC2)CC(=O)N(C)[C@@H](CC)C(=O)N[C@H](CC(C)C)C(=O)N(C)[C@@H](CC(C)C)C(=O)N(C)[C@@H](Cc2ccccc2)C(=O)N[C@@H](COCCN2CCOCC2)C(=O)N(C)[C@H](CC)C(=O)N(C)[C@@H](CC(C)C)C(=O)N[C@@H]([C@@H](C)O)C1=O [pd482] ([NMeAbu][dL][NMeL][NMeF]S(Ethyl(2-morpholino))[dNMeAbu][NMeL]T[NBuGly][NMeL]D-Piperidide; lactam N-11)	1.1e-06	
CCCCN1CC(=O)N(C)[C@@H](Cc2ccccc2)C(=O)N(C)[C@@H](CC(C)C)C(=O)N[C@@H](CC(C)C)C(=O)N(C)[C@@H](CC(C)C)C(=O)N[C@H](C(=O)N2CCCCC2)CC(=O)N(C)CC(=O)N(C)[C@@H](CC)C(=O)N[C@@H](C(C)C)C(=O)N(C)[C@@H](CC(C)C)C(=O)N[C@@H](COCCN2CCOCC2)C1=O [pd486] ([Sar][NMeAbu]V[NMeL]S(Ethyl(2-morpholino))[NBuGly][NMeF][NMeL]L[NMeL]D-Piperidide; lactam N-11)	1.1e-06	
CCCCN1CC(=O)N(C)[C@@H](CC(C)C)C(=O)N[C@H](C(=O)N2CCCCC2)CC(=O)N(C)[C@@H](C)C(=O)N[C@@H](COC[C@@H](C)O)C(=O)N(C)[C@H](CC(C)C)C(=O)N(C)[C@@H](Cc2cccc(Cl)c2)C(=O)N[C@@H](CC(C)C)C(=O)N(C)[C@@H](Cc2ccccc2)C(=O)N(C)[C@@H]([C@@H](C)CC)C(=O)N[C@@H]([C@@H](C)O)C1=O [pd489] ([NMeA]S(Propyl(2R-OH))[dNMeL][NMePhe(3-Cl)]L[NMeF][NMeI]T[NBuGly][NMeL]D-Piperidide; lactam N-11)	1.1e-06	
CC[C@H](C)[C@H]1C(=O)N[C@@H]([C@@H](C)O)C(=O)N(C)CC(=O)N(C)[C@@H](CC(C)C)C(=O)N[C@H](C(=O)N2CCCCC2)CC(=O)N(C)[C@@H](C(C)C)C(=O)N[C@@H](COC[C@@H](C)O)C(=O)N(C)[C@H](CC(C)C)C(=O)N(C)[C@@H](Cc2cccc(Cl)c2)C(=O)N[C@@H](CC(C)C)C(=O)N(C)[C@@H](Cc2ccccc2)C(=O)N1C [pd491] ([NMeV]S(Propyl(2R-OH))[dNMeL][NMePhe(3-Cl)]L[NMeF][NMeI]T[Sar][NMeL]D-Piperidide; lactam N-11)	1.1e-06	
CC(C)C[C@H]1C(=O)N[C@@H](C(C)C)C(=O)N(C)[C@@H](Cc2ccccc2)C(=O)N(C)[C@@H](Cc2ccccc2)C(=O)N[C@@H](COC(C)(C)C)C(=O)N(C)[C@@H](CC(C)C)C(=O)N[C@@H](COCCO)C(=O)N(C)[C@@H](CC(C)C)C(=O)N(C)[C@@H](CC(C)C)C(=O)N[C@H](C(=O)N2CCCCC2)CC(=O)N(C)CCCC(=O)N1C [pd498] ([NMeGABA][NMeL]V[NMeF][NMeF]S(tBu)[NMeL]S(Ethyl(2-OH))[NMeL][NMeL]D-Piperidide; lactam N-11)	1.1e-06	
CCCCN1CC(=O)N(C)[C@@H](Cc2ccccc2)C(=O)N(C)[C@@H](CC(C)C)C(=O)N[C@@H](COC(C)(C)C)C(=O)N(C)[C@@H](CC(C)C)C(=O)N[C@H](C(=O)N2CCCCC2)CC(=O)N(C)CC(=O)N(C)[C@@H](Cc2ccccc2)C(=O)N[C@@H](C(C)C)C(=O)N(C)[C@@H](CC(C)C)C(=O)N[C@@H](COCCO)C1=O [pd501] ([Sar][NMeF]V[NMeL]S(Ethyl(2-OH))[NBuGly][NMeF][NMeL]S(tBu)[NMeL]D-Piperidide; lactam N-11)	1.1e-06	
CC(C)NCC(O)COc1cccc2ccccc12 (stereo not drawn) [propranolol]		decrease in the concentration on the Apical side (Caco-2 cells [1]): approximately 40%; added drug distributed in the cells after completion of incubation (Caco-2 cells [1]): approximately 8%
